# How the values were obtained:
# [1] = tested on: cAMP production in HMEC-1 cells; assay: cAMP enzyme immunoassay in endothelial cells; format: cell-based, human
# Procedure: Thus, an experiment was conducted to determine if stimulation of endothelial cells with IP-10dp would induce an increase in cAMP. HMEC-1 cells were plated in 10 mm culture dishes and grown to confluency in complete growth media. The cells were then incubated in serum-reduced media (0.5% dialyzed FBS for HMEC-1 cells) for 24 hours at 37° C. The cells were then washed once with PBS and incubated in serum-free media. The cells were then stimulated with forskolin ([…]), VEGF (100 ng/ml), IP-10 (200 ng/ml), IP-10dp (10 μM) alone or in various combinations. The media was removed and ice cold 80% ethanol was added and the cells incubated on ice for 15 minutes. The extracts were evaluated and quantified for total cAMP production by using a cAMP enzyme immunoassay kit provided by Sigma-Aldrich Corp., of St. Louis, Mo., according to the manufacturer's protocol.
# [2] = tested on: VEGF-induced newly formed vessels; assay: In vivo Matrigel plug assay, regression of newly formed vessels; design: species or system C57BL/6J mice; settings: mice; injected into plug at days 10 and 12, examined day 17; IP-10 10 μg, IP-10dp 100 μg
# Procedure: Further, to verify that IP-10dp is able to cause regression of newly formed vessels in vivo, parallel experiments were conducted on similar mice whereby GFR Matrigel supplemented with VEGF (200 ng/ml) was first injected into both the left and right side groins of mice (establishing a control location and a test location). After 10 days, the left side Matrigel plug was removed (control, n=6) and stained as above for histological examination, with the left side samples being used to establish the extent of new vessel invasion at 10 days. The remaining right side Matrigel plug in the mice was injected with either IP-10 (10 μg) or IP-10dp (100 μg) at days 10 and 12. Day 17, the right side Matrigel plugs were removed and stained for examination as above. FIG. 8D through FIG. 8G are color photographs of tissue samples, showing both 10× and 40× magnifications, taken from laboratory C57BL/6J mice. […]
sequence,measurement,setting,value
"PESKAIKNLLKAVSKEMSKRSP (IP-10dp; listed as Homo sapiens) [synthetic fragment of IP-10 comprising residues 78-98, the C-terminal α-helical domain]",increase in cAMP production compared to control and VEGF treated cells,[1]; IP-10dp 10 μM,2-3 fold
same,cAMP production with VEGF plus IP-10dp compared to VEGF alone,[1]; VEGF 100 ng/ml plus IP-10dp 10 μM,significant increase in cAMP production
same,regression of vessels compared to saline control,[2],significant regression of vessels

# — US8734775B2, “Chemokine derived peptides that bind with chemokine receptor CXCR3 and uses for chronic wound and angiogenesis inhibition treatments” (University of Pittsburgh, priority 2011, dated 2014)
